# Measured values: patent publication US20240190876A1, “Tricyclic Urea Compounds As JAK2 V617F Inhibitors” (Incyte Corporation, priority 2022, published 2024)
# pIC50: −log10 of the molar value.
# Columns and labels:
# [1] = tested on: KIT; assay: KIT Enzymatic Assay; format: biochemical; settings: ratio KIT IC50 / JH2 V617F binding IC50
# Protocol: (§1) The kinase assays were carried out at room temperature in assay buffer (HEPES 50 mM, pH 7.0, NaN3 0.02%, BSA 0.01%, Orthovanadate 0.1 mM, DTT 1 mM, MgCl2 10 mM) in a final volume of 10 μL. Testing compounds were prepared by serial dilution in DMSO and transferred to the plate wells by ECHO liquid handler (Labcyte) with 0.5% DMSO in the final assay. […]. Reactions were initiated by the addition of 5 μL ATP in assay buffer. The final 10 μL kinase reaction consists of 0.12 nM KIT, 1 mM ATP, 500 nM TK Substrate-biotin and SEB reagent 62.5 nM in assay buffer. […] The plates were then sealed and centrifuged at 1800 rpm for 2 minutes. After 60 minutes incubation at room temperature, the product activity was determined by measuring the fluorescence at 620 nm and 665 nm on Pherastar microplate reader (BMG Labtech). A ratio is calculated (665/620 nm) for each well. Wells with DMSO only were served as the positive controls and wells containing no ATP were used as negative controls. IC50 determination was performed by fitting the curve of percent control activity versus the log of the compound concentration using the GraphPad Prism 7.0 software.
# [2] = tested on: FLT3; assay: FLT3 Enzymatic Assay; format: biochemical; settings: ratio FLT3 IC50 / JH2 V617F binding IC50
# Protocol: as §1, with “0.011” for “0.12”, “FLT3,” for “KIT,”
# [3] = In Vitro Intrinsic Clearance; format: in vitro ADME; settings: human liver microsomes, 1 μM compound, NADPH, scaled to human
# Protocol: For in vitro metabolic stability experiments, test compounds were incubated with human liver microsomes at 37° C. The incubation mixture contained test compounds (1 μM), NADPH (2 mM), and human liver microsomes ([…]) in 100 mM phosphate buffer (pH 7.4). The mixture was pre-incubated for 2 min at 37° C. before the addition of NADPH. Reactions were commenced upon the addition of NADPH and quenched with ice-cold methanol at 0, 10, 20, and 30 min. Terminated incubation mixtures were analyzed using LC-MS/MS system. The analytical system consisted of a Shimadzu LC-30AD binary pump system and SIL-30AC autosampler (Shimadzu Scientific Instruments, Columbia, MD) coupled with a Sciex Triple Quad 6500+mass spectrometer from Applied Biosystems (Foster City, CA). […] Mobile phase A consisted of 0.1% formic acid in water, and mobile phase B consisted of 0.1% formic acid in acetonirile. The total LC-MS/MS runtime was 2.75 minutes with a flow rate of 0.75 mL/min. Peak area integrations and peak area ratio calculations were performed using Analyst software (version 1.6.3) from Applied Biosystems.
# The in vitro intrinsic clearance, CLint, in vitro, was calculated from the t1/2 of test compound disappearance as CLint, in vitro=(0.693/t1/2)×(1/Cprotein), where Cprotein is the protein concentration during the incubation, and t1/2 was determined by the slope (k) of the log-linear regression analysis of the concentration versus time profiles; thus, t1/2ln2/k. The CLint, in vitro values were scaled to the in vivo values for human by using physiologically based scaling factors, hepatic microsomal protein concentrations (45 mg protein/g liver), and liver weights (21 g/kg body weight). The equation CLint=CLint, in vitro×(mg protein/g liver weight)×(g liver weight/kg body weight) was used. The in vivo hepatic clearance (CLH) was then calculated by using CLint and hepatic blood flow, Q (20 mL·min^−1kg^−1 in humans) in the well-stirred liver model disregarding all binding from CLH (Q×CLint)/(Q+CLint). The hepatic extraction ratio was calculated as CLH divided by Q.
# [4] = biological target: KIT (Homo sapiens, UniProt P10721); assay: KIT Enzymatic Assay; format: biochemical; settings: HTRF kinase assay, 1 mM ATP
# Protocol: as §1
# [5] = biological target: T1, FLT3 (Homo sapiens, UniProt P36888); assay: FLT3 Enzymatic Assay; format: biochemical; settings: HTRF kinase assay, 1 mM ATP
# T1 sequence (P36888 27-993): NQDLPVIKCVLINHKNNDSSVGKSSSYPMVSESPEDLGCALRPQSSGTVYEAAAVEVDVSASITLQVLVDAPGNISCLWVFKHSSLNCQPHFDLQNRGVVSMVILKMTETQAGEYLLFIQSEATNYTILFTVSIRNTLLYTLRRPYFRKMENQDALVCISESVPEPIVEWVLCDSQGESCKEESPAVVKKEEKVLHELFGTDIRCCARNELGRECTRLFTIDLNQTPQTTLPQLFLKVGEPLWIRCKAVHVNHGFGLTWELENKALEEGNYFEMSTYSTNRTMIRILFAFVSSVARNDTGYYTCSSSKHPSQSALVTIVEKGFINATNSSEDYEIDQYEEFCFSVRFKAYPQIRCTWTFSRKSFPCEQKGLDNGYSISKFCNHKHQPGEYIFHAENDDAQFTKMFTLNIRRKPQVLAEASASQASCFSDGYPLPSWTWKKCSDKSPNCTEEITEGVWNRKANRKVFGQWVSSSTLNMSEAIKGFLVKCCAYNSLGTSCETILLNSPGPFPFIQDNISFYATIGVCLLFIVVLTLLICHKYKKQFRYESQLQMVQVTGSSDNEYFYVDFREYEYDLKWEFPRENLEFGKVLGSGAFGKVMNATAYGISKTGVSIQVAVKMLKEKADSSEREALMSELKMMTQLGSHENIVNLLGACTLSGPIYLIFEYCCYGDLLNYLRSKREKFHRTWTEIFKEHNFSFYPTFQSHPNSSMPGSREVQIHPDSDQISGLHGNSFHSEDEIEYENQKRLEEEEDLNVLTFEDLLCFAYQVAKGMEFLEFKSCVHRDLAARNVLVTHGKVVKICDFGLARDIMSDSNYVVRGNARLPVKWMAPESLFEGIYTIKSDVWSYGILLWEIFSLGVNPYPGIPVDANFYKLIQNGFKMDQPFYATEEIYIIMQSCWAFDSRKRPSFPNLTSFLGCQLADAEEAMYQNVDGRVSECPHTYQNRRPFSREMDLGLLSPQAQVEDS
# Protocol: as §1, with “0.011” for “0.12”, “FLT3,” for “KIT,”
# Chain of KIT (Homo sapiens, UniProt P10721) (P10721 26-976, species assumed): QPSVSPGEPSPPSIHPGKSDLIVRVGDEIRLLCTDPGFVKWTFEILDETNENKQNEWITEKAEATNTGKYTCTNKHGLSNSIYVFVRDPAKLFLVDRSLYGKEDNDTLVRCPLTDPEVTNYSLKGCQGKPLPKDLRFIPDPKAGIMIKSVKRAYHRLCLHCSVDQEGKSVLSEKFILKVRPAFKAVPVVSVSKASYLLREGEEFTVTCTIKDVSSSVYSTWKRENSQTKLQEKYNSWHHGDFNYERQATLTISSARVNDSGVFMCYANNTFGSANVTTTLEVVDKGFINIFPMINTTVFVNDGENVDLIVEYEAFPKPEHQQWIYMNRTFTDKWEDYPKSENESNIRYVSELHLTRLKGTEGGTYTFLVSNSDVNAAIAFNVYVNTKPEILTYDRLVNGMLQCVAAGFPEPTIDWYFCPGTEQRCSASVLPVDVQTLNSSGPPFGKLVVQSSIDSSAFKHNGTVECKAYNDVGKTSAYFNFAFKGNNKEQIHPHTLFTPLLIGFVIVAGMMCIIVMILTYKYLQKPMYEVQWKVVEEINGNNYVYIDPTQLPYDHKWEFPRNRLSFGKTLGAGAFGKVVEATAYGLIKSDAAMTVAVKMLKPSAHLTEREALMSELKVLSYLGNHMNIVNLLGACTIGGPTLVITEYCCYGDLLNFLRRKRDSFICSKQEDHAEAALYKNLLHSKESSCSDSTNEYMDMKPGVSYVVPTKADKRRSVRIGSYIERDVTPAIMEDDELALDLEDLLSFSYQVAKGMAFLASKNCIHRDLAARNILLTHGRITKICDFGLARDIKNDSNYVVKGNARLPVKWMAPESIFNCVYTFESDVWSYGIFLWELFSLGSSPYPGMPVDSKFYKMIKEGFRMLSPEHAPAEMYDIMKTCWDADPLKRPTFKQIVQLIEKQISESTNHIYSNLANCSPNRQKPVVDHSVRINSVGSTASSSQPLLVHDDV
pIC50 [4],pIC50 [5],Compound,Selectivity KIT/JH2 V617F [1],Selectivity FLT3/JH2 V617F [2],h-IntCL [3]
5.60 to 5.90,5.90 to 6.60,"[2H]C([2H])([2H])n1ncc2cc(-c3c(-c4cn(C)nc4OC)[nH]c4ncc5c(c34)n(C3CCOCC3)c(=O)n5C)ccc21 [Comparative Example B, reference compound]",** (** refers to selectivity of >500-fold to ≤1500-fold),* (* refers to selectivity of ≤500-fold),‡ ‡ (‡ ‡ refers to h-IntCL of ≥0.7 L/h/kg to ≤1 L/h/kg)
6.60 to 7.60,≥ 7.60,"Cn1cc(-c2[nH]c3ncc4c(c3c2-c2ccc3c(cnn3C)c2)n([C@H]2CC[C@@H](CC#N)CC2)c(=O)n4C)cn1 [Comparative Example C, reference compound]",* (* refers to selectivity of ≤500-fold),* (* refers to selectivity of ≤500-fold),‡ ‡ ‡ (‡ ‡ ‡ refers to h-IntCL of >1 L/h/kg)
,5.90 to 6.60,"COc1nn(C)cc1-c1[nH]c2ncc3c(c2c1-c1ccc2c(cnn2C)c1)n(C1CCOCC1)c(=O)n3C [Comparative Example A, reference compound]",* (* refers to selectivity of ≤500-fold),* (* refers to selectivity of ≤500-fold),‡ ‡ ‡ (‡ ‡ ‡ refers to h-IntCL of >1 L/h/kg)

# More lines, now with the values behind:
Compound,pIC50 [4],pIC50 [5],Selectivity KIT/JH2 V617F [1],Selectivity FLT3/JH2 V617F [2],h-IntCL [3]
"COc1nn(C)cc1-c1[nH]c2ncc3c(c2c1-c1ccc2c(cnn2C)c1)n([C@H]1CC[C@@H](CC#N)CC1)c(=O)n3C [Comparative Example E, reference compound]",,,*** (*** refers to selectivity of >1500-fold to ≤1750-fold),* (* refers to selectivity of ≤500-fold),‡ ‡ ‡ (‡ ‡ ‡ refers to h-IntCL of >1 L/h/kg)
"COc1ccc(-c2c(-c3cnn(Cc4ccncc4)c3)[nH]c3ncc4c(c23)n(C2CCCC2)c(=O)n4C)cc1 [Comparative Example D, reference compound]",,,,,‡ ‡ ‡ (‡ ‡ ‡ refers to h-IntCL of >1 L/h/kg)
